Source: the supplement of paper PMC10307832

Compound: N[C@@H]1CCCN(c2c(/C=C3\SC(=O)NC3=O)cccc2-c2ccccc2)C1 [AZD1208] + NC(=O)Nc1cc(-c2cccc(F)c2)sc1C(=O)N[C@H]1CCCNC1 [AZD7762] (partner 0.2 µM)
Experiment: relative viability (nuclei count vs DMSO), 5 days (fraction); higher = more cells survive
Conditions: first compound 0.08 µM
Method in brief: (§1)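 Relative viability is defined as nuclei in treated wells over nuclei in vehicle wells. Duplicate plates were run and medians reported. Lung cancer cell lines in 1536-well plates were dosed by pin tool one day after seeding, with one drug or with a fixed anchor-drug dose plus five library-drug doses (not always all listed) in √10 steps, and nuclei were counted after 5 days.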

Point of comparison: HOP-62, relative viability 0.859. Against it:
- NCI-H522 — lower, 0.773
- NCI-H838 — higher, 0.931
- NCI-H1703 — lower, 0.116
- NCI-H1993 — lower, 0.679
- PC-14 — lower, 0.404
- LCLC-103H — lower, 0.843
- NCI-H596 — higher, 1.17
- EMC-BAC-2 — higher, 1.21
- NCI-H2087 — higher, 1.29
- HCC-366 — lower, 0.368
- NCI-H1666 — higher, 0.953
- NCI-H647 — lower, 0.638
- LK-2 — lower, 0.307
- NCI-H2126 — higher, 1.03
- NCI-H2342 — lower, 0.553
- H3255 — higher, 1.01
- LOU-NH91 — lower, 0.74
- ChaGo-K-1 — lower, 0.849
- NCI-H2170 — higher, 0.911
- NCI-H3122 — higher, 1.07
- SW 900 — lower, 0.62
- NCI-H1648 — lower, 0.584
- CAL-12T — lower, 0.621

Same assay, conditions: first compound 0.253 µM

Point of comparison: HCC-366, relative viability 0.362. Against it:
- NCI-H522 — higher, 0.892
- NCI-H838 — higher, 1.02
- NCI-H1703 — lower, 0.0963
- NCI-H1993 — higher, 0.654
- PC-14 — higher, 0.429
- LCLC-103H — higher, 0.84
- NCI-H596 — higher, 1.07
- EMC-BAC-2 — higher, 1.13
- NCI-H2087 — higher, 1.45
- NCI-H1666 — higher, 0.888
- NCI-H647 — higher, 0.547
- LK-2 — lower, 0.167
- NCI-H2126 — higher, 1.08
- NCI-H2342 — higher, 0.417
- H3255 — higher, 0.992
- LOU-NH91 — higher, 0.714
- ChaGo-K-1 — higher, 0.931
- NCI-H2170 — higher, 0.923
- NCI-H3122 — higher, 1.04
- HOP-62 — higher, 0.794
- SW 900 — higher, 0.518
- NCI-H1648 — higher, 0.618
- CAL-12T — higher, 0.624

Same assay, conditions: first compound 0.8 µM

Point of comparison: NCI-H522, relative viability 0.756. Against it:
- NCI-H838 — higher, 0.887
- NCI-H1703 — lower, 0.18
- NCI-H1993 — lower, 0.629
- PC-14 — lower, 0.366
- LCLC-103H — higher, 0.774
- NCI-H596 — higher, 1.01
- EMC-BAC-2 — higher, 0.866
- NCI-H2087 — higher, 1.35
- HCC-366 — lower, 0.371
- NCI-H1666 — higher, 0.762
- NCI-H647 — lower, 0.466
- NCI-H2126 — higher, 1.02
- NCI-H2342 — lower, 0.461
- H3255 — higher, 0.898
- LOU-NH91 — lower, 0.71
- ChaGo-K-1 — higher, 0.813
- NCI-H2170 — higher, 0.821
- NCI-H3122 — higher, 0.952
- HOP-62 — lower, 0.612
- SW 900 — lower, 0.453
- NCI-H1648 — lower, 0.684
- CAL-12T — lower, 0.621

Same assay, conditions: first compound 2.53 µM

Point of comparison: SW 900, relative viability 0.576. Against it:
- NCI-H522 — higher, 0.747
- NCI-H838 — higher, 0.993
- NCI-H1703 — lower, 0.128
- NCI-H1993 — higher, 0.757
- PC-14 — lower, 0.324
- LCLC-103H — higher, 0.74
- NCI-H596 — higher, 1.01
- EMC-BAC-2 — higher, 1.03
- NCI-H2087 — higher, 1.46
- HCC-366 — lower, 0.41
- NCI-H1666 — higher, 0.856
- NCI-H647 — lower, 0.378
- LK-2 — lower, 0.11
- NCI-H2126 — higher, 0.996
- NCI-H2342 — lower, 0.474
- H3255 — higher, 0.912
- LOU-NH91 — higher, 0.684
- ChaGo-K-1 — higher, 0.952
- NCI-H2170 — higher, 0.796
- NCI-H3122 — higher, 1.08
- HOP-62 — higher, 0.66
- NCI-H1648 — lower, 0.533
- CAL-12T — higher, 0.596

Same assay, conditions: first compound 8 µM

Point of comparison: LOU-NH91, relative viability 0.667. Against it:
- NCI-H522 — lower, 0.584
- NCI-H838 — higher, 1.01
- NCI-H1703 — lower, 0.102
- NCI-H1993 — lower, 0.579
- PC-14 — lower, 0.414
- LCLC-103H — higher, 0.689
- NCI-H596 — lower, 0.666
- EMC-BAC-2 — higher, 0.875
- NCI-H2087 — higher, 1.32
- HCC-366 — lower, 0.387
- NCI-H1666 — higher, 0.937
- NCI-H647 — lower, 0.497
- LK-2 — lower, 0.144
- NCI-H2126 — higher, 0.928
- NCI-H2342 — lower, 0.409
- H3255 — higher, 0.845
- ChaGo-K-1 — higher, 0.776
- NCI-H2170 — lower, 0.424
- NCI-H3122 — higher, 0.894
- HOP-62 — higher, 0.824
- SW 900 — lower, 0.485
- NCI-H1648 — higher, 1.28
- CAL-12T — higher, 0.905

Compound: CN1CCN(CC1)C2=CC(=C(C=C2)NC3=NC(=C(S3)C(=O)C4=C(C=CC=C4Cl)Cl)N)OC [XMD14-99] + O=C(c1cc(Cc2n[nH]c(=O)c3ccccc23)ccc1F)N1CCN(C(=O)C2CC2)CC1 [Olaparib] (partner 8 µM)
Experiment: as above
Conditions: first compound 0.08 µM
Method in brief: as §1

Point of comparison: SW 900, relative viability 0.831. Against it:
- NCI-H522 — lower, 0.586
- NCI-H838 — lower, 0.736
- NCI-H1650 — higher, 0.834
- EBC-1 — lower, 0.771
- NCI-H1703 — lower, 0.492
- NCI-H2009 — lower, 0.662
- NCI-H1993 — higher, 1.11
- PC-14 — lower, 0.276
- LCLC-103H — lower, 0.764
- NCI-H596 — lower, 0.815
- NCI-H2228 — lower, 0.776
- EMC-BAC-2 — lower, 0.507
- NCI-H2087 — lower, 0.506
- Calu-6 — lower, 0.524
- HCC-366 — lower, 0.375
- NCI-H1666 — lower, 0.81
- NCI-H647 — lower, 0.512
- LK-2 — lower, 0.751
- NCI-H2126 — higher, 0.96
- NCI-H2342 — lower, 0.548
- SK-MES-1 — lower, 0.658
- H3255 — lower, 0.577
- COR-L23 — lower, 0.345
- COR-L 105 — lower, 0.657
- IA-LM — higher, 0.943
- LOU-NH91 — higher, 0.904
- ChaGo-K-1 — lower, 0.473
- NCI-H2170 — lower, 0.543
- NCI-H3122 — lower, 0.671
- HOP-62 — lower, 0.536
- A549 — lower, 0.471
- NCI-H1648 — higher, 0.95
- NCI-H2023 — lower, 0.442
- NCI-H520 — lower, 0.344
- SW 1573 — lower, 0.445
- NCI-H1299 — higher, 0.929
